Starred links: 1 amine or outer side, 2 acyl side, 3 side chain; linkers in the order of their positions; H or OH if unused. Non-standard residues stand in square brackets, D forms with d. Residues, ends and D or L forms follow the SMILES beside them. Groups on a side chain read outwards from the residue. *: point of attachment. γGlu = O=C(O)[C@H](CCC(=O)[*:2])N[*:1]; Palmitoyl = CCCCCCCCCCCCCCCC(=O)*; Ac3c = NC1(C(=O)O)CC1
target: T1, human glucagon-like peptide 1 receptor (GLP-1R) (Homo sapiens, UniProt P43220); experiment: GLP-1 receptor efficacy assay (cAMP AlphaScreen, CHO cells); format: cell-based; conditions: EC50 [GLP-1R] / EC50 [Glucagon-R], human receptors in CHO-K1
T1 construct: expressed in transfected cells
Method: The mammalian expression vectors encoding the Glucagon-R or the GLP-1-R were transfected into Chinese hamster ovary (CHO) cells by the Attractene method. Stably expressing clones were obtained by Zeocin selection (250 μg/mL) upon limited dilution of cells resistant to the selection pressure. […] One Glucagon-R expressing clone and one GLP-1-R expressing clone were chosen for compound profiling.
CHO cells expressing the human Glucagon-R, or human GLP-1-R were seeded 24 hours prior to the assay at 30,000 cells per well in 96-well microtiter plates in culture in 100 μl growth medium. On the day of analysis, growth medium was removed and the cells were washed once with 200 μl of assay buffer (Krebs-Ringer-buffer—KRBH). The buffer was removed and the cells were incubated for 15 min at room temperature in 10 μl KRBH (KRBH+10 mM HEPES, 5 mM NaHCO3, 0.1% (V/V) BSA) with 0.1 mM IBMX in deionized water containing increasing concentrations of test peptides. The reaction was stopped by the addition of lysis buffer (0.1% w/v BSA, 5 mM HEPES, 0.3% v/v Tween-20). After cell lysis for 10 min at room temperature, lysates were transferred to 384-well plates and 10 μl of acceptor/donorbead mixture as contained in the AlphaScreen™ cAMP Functional Assay Kit was added. After one hour of incubation at room temperature in the dark, the cAMP content was determined applying the AlphaScreen™ cAMP Functional Assay Kit from Perkin-Elmer according to manufacturer instructions. […] The GLP-1/glucagon ratio is calculated as defined earlier.

T1 sequence (P43220 24-463): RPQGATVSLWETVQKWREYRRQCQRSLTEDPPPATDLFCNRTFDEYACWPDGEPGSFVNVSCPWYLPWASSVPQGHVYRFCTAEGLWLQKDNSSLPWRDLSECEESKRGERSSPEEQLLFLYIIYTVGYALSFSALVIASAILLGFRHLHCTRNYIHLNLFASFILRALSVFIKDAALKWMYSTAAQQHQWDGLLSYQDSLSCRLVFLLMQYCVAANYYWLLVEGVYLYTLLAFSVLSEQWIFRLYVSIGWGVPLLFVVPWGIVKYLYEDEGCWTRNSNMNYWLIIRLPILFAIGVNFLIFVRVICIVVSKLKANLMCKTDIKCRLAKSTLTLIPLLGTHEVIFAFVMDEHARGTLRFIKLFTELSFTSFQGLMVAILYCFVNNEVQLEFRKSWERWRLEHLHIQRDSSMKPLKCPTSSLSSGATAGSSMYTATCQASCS

First: CCCCCCCCCCCCCCCC(=O)N[C@@H](CCC(=O)NCCCC[C@H](NC(=O)[C@H](CO)NC(=O)[C@H](CC(=O)O)NC(=O)[C@H](CC(C)C)NC(=O)[C@H](Cc1ccc(O)cc1)NC(=O)[C@H](CCCCN)NC(=O)[C@H](CO)NC(=O)[C@H](Cc1ccc(O)cc1)NC(=O)[C@H](CC(=O)O)NC(=O)[C@H](CO)NC(=O)[C@@H](NC(=O)[C@H](Cc1ccccc1)NC(=O)[C@@H](NC(=O)CNC(=O)[C@H](Cc1c[nH]cn1)NC(=O)[C@H](C)NC(=O)[C@@H](N)Cc1c[nH]cn1)[C@@H](C)O)[C@@H](C)O)C(=O)N[C@@H](C)C(=O)N[C@@H](C)C(=O)N[C@@H](Cc1c[nH]cn1)C(=O)N[C@@H](CC(=O)O)C(=O)N[C@@H](Cc1ccccc1)C(=O)N[C@H](C(=O)N[C@@H](CCC(=O)O)C(=O)N[C@@H](Cc1c[nH]c2ccccc12)C(=O)N[C@@H](CC(C)C)C(=O)N[C@@H](CC(C)C)C(=O)N[C@@H](CO)C(=O)N[C@@H](C)C(N)=O)C(C)C)C(=O)O [Compound 6] (H-HAHGTFTSDYSKYLDSK([γGlu-Palmitoyl])AAHDFVEWLLSA-NH2)
Second: CCCCCCCCCCCCCCCC(=O)N[C@@H](CCC(=O)NCCCC[C@H](NC(=O)[C@H](CO)NC(=O)[C@H](CC(=O)O)NC(=O)[C@H](CC(C)C)NC(=O)[C@H](Cc1ccc(O)cc1)NC(=O)[C@H](CCCCN)NC(=O)[C@H](CO)NC(=O)[C@H](Cc1ccc(O)cc1)NC(=O)[C@H](CC(=O)O)NC(=O)[C@H](CO)NC(=O)[C@@H](NC(=O)[C@H](Cc1ccccc1)NC(=O)[C@@H](NC(=O)CNC(=O)[C@H](Cc1c[nH]cn1)NC(=O)[C@@H](C)NC(=O)[C@@H](N)Cc1c[nH]cn1)[C@@H](C)O)[C@@H](C)O)C(=O)N[C@@H](C)C(=O)N[C@@H](C)C(=O)N[C@@H](Cc1c[nH]cn1)C(=O)N[C@@H](CC(=O)O)C(=O)N[C@@H](Cc1ccccc1)C(=O)N[C@H](C(=O)N[C@@H](CCC(=O)O)C(=O)N[C@@H](Cc1c[nH]c2ccccc12)C(=O)N[C@@H](CC(C)C)C(=O)N[C@@H](CC(C)C)C(=O)N[C@@H](CO)C(=O)N[C@@H](C)C(N)=O)C(C)C)C(=O)O [Compound 7] (H-H[dA]HGTFTSDYSKYLDSK([γGlu-Palmitoyl])AAHDFVEWLLSA-NH2)
The “Ratio GLP-1/Glucagon” value of the first is higher: 0.75 for the first, 0.58 for the second.

Going from `CCCCCCCCCCCCCCCC(=O)N[C@@H](CCC(=O)NCCCC[C@H](NC(=O)[C@H](CCC(=O)O)NC(=O)[C@H](CC(=O)O)NC(=O)[C@H](CC(C)C)NC(=O)[C@H](Cc1ccc(O)cc1)NC(=O)[C@H](CCCCN)NC(=O)[C@H](CO)NC(=O)[C@H](Cc1ccc(O)cc1)NC(=O)[C@H](CC(=O)O)NC(=O)[C@H](CO)NC(=O)[C@@H](NC(=O)[C@H](Cc1ccccc1)NC(=O)[C@@H](NC(=O)CNC(=O)[C@H](CCC(N)=O)NC(=O)C1(NC(=O)[C@@H](N)Cc2c[nH]cn2)CCC1)[C@@H](C)O)[C@@H](C)O)C(=O)N[C@@H](C)C(=O)N[C@@H](C)C(=O)N[C@@H](CCCCN)C(=O)N[C@@H](CC(=O)O)C(=O)N[C@@H](Cc1ccccc1)C(=O)N[C@H](C(=O)N[C@@H](CCC(=O)O)C(=O)N[C@@H](Cc1c[nH]c2ccccc12)C(=O)N[C@@H](CC(C)C)C(=O)N[C@@H](CCC(=O)O)C(=O)N[C@@H](CO)C(=O)N[C@@H](C)C(N)=O)[C@@H](C)CC)C(=O)O` [Compound 14] to `CCCCCCCCCCCCCCCC(=O)N[C@@H](CCC(=O)NCCCC[C@H](NC(=O)[C@H](CCC(=O)O)NC(=O)[C@H](CC(=O)O)NC(=O)[C@H](CC(C)C)NC(=O)[C@H](Cc1ccc(O)cc1)NC(=O)[C@H](CCCCN)NC(=O)[C@H](CO)NC(=O)[C@H](Cc1ccc(O)cc1)NC(=O)[C@H](CC(=O)O)NC(=O)[C@H](CO)NC(=O)[C@@H](NC(=O)[C@H](Cc1ccccc1)NC(=O)[C@@H](NC(=O)CNC(=O)[C@H](CCC(N)=O)NC(=O)[C@@H]1CCCN1C(=O)[C@@H](N)Cc1c[nH]cn1)[C@@H](C)O)[C@@H](C)O)C(=O)N[C@@H](C)C(=O)N[C@@H](C)C(=O)N[C@@H](CCCCN)C(=O)N[C@@H](CC(=O)O)C(=O)N[C@@H](Cc1ccccc1)C(=O)N[C@H](C(=O)N[C@@H](CCC(=O)O)C(=O)N[C@@H](Cc1c[nH]c2ccccc12)C(=O)N[C@@H](CC(C)C)C(=O)N[C@@H](CCC(=O)O)C(=O)N[C@@H](CO)C(=O)N[C@@H](C)C(N)=O)[C@@H](C)CC)C(=O)O` [Compound 13], the “Ratio GLP-1/Glucagon” value rises from 0.04 to 0.07.

Compared with `CCCCCCCCCCCCCCCC(=O)N[C@@H](CCC(=O)NCCCC[C@H](NC(=O)[C@H](CO)NC(=O)[C@H](CC(=O)O)NC(=O)[C@H](CC(C)C)NC(=O)[C@H](Cc1ccc(O)cc1)NC(=O)[C@H](CCCCN)NC(=O)[C@H](CO)NC(=O)[C@H](Cc1ccc(O)cc1)NC(=O)[C@H](CC(=O)O)NC(=O)[C@H](CO)NC(=O)[C@@H](NC(=O)[C@H](Cc1ccccc1)NC(=O)[C@@H](NC(=O)CNC(=O)[C@H](CCC(N)=O)NC(=O)[C@H](C)NC(=O)[C@@H](N)Cc1c[nH]cn1)[C@@H](C)O)[C@@H](C)O)C(=O)N[C@@H](C)C(=O)N[C@@H](C)C(=O)N[C@@H](Cc1c[nH]cn1)C(=O)N[C@@H](CC(=O)O)C(=O)N[C@@H](Cc1ccccc1)C(=O)N[C@H](C(=O)N[C@@H](CCC(=O)O)C(=O)N[C@@H](Cc1c[nH]c2ccccc12)C(=O)N[C@@H](CC(C)C)C(=O)N[C@@H](CC(C)C)C(=O)N[C@@H](CO)C(=O)N[C@@H](C)C(N)=O)C(C)C)C(=O)O` [Compound 1], `CCCCCCCCCCCCCCCC(=O)N[C@@H](CCC(=O)NCCCC[C@H](NC(=O)[C@H](CO)NC(=O)[C@H](CC(=O)O)NC(=O)[C@H](CC(C)C)NC(=O)[C@H](Cc1ccc(O)cc1)NC(=O)[C@H](CCCCN)NC(=O)[C@H](CO)NC(=O)[C@H](Cc1ccc(O)cc1)NC(=O)[C@H](CC(=O)O)NC(=O)[C@H](CO)NC(=O)[C@@H](NC(=O)[C@H](Cc1ccccc1)NC(=O)[C@@H](NC(=O)CNC(=O)[C@H](CCC(N)=O)NC(=O)[C@H](CO)N(C)C(=O)[C@@H](N)Cc1c[nH]cn1)[C@@H](C)O)[C@@H](C)O)C(=O)N[C@@H](C)C(=O)N[C@@H](C)C(=O)N[C@@H](Cc1c[nH]cn1)C(=O)N[C@@H](CC(=O)O)C(=O)N[C@@H](Cc1ccccc1)C(=O)N[C@H](C(=O)N[C@@H](CCC(=O)O)C(=O)N[C@@H](Cc1c[nH]c2ccccc12)C(=O)N[C@@H](CC(C)C)C(=O)N[C@@H](CC(C)C)C(=O)N[C@@H](CO)C(=O)N[C@@H](C)C(N)=O)C(C)C)C(=O)O` [Compound 2] is higher in “Ratio GLP-1/Glucagon” value: 2.26 for the first, 3.83 for the second.

For `CCCCCCCCCCCCCCCC(=O)N[C@@H](CCC(=O)NCCCC[C@H](NC(=O)[C@H](CO)NC(=O)[C@H](CC(=O)O)NC(=O)[C@H](CC(C)C)NC(=O)[C@H](Cc1ccc(O)cc1)NC(=O)[C@H](CCCCN)NC(=O)[C@H](CO)NC(=O)[C@H](Cc1ccc(O)cc1)NC(=O)[C@H](CC(=O)O)NC(=O)[C@H](CO)NC(=O)[C@@H](NC(=O)[C@H](Cc1ccccc1)NC(=O)[C@@H](NC(=O)CNC(=O)[C@H](Cc1c[nH]cn1)NC(=O)C1(NC(=O)[C@@H](N)Cc2c[nH]cn2)CC1)[C@@H](C)O)[C@@H](C)O)C(=O)N[C@@H](C)C(=O)N[C@@H](C)C(=O)N[C@@H](Cc1c[nH]cn1)C(=O)N[C@@H](CC(=O)O)C(=O)N[C@@H](Cc1ccccc1)C(=O)N[C@H](C(=O)N[C@@H](CCC(=O)O)C(=O)N[C@@H](Cc1c[nH]c2ccccc12)C(=O)N[C@@H](CC(C)C)C(=O)N[C@@H](CC(C)C)C(=O)N[C@@H](CO)C(=O)N[C@@H](C)C(N)=O)C(C)C)C(=O)O` [Compound 8] (H-H[Ac3c]HGTFTSDYSKYLDSK([γGlu-Palmitoyl])AAHDFVEWLLSA-NH2), the “Ratio GLP-1/Glucagon” value was 0.13.

same assay, conditions: cAMP formation, CHO cells expressing human GLP-1-R; read-out: EC50 hGLP-1R CHO-K1

`CCCCCCCCCCCCCCCC(=O)N[C@@H](CCC(=O)NCCCC[C@H](NC(=O)[C@H](CCC(=O)O)NC(=O)[C@H](CC(=O)O)NC(=O)[C@H](CC(C)C)NC(=O)[C@H](Cc1ccc(O)cc1)NC(=O)[C@H](CCCCN)NC(=O)[C@H](CO)NC(=O)[C@H](Cc1ccc(O)cc1)NC(=O)[C@H](CC(=O)O)NC(=O)[C@H](CO)NC(=O)[C@@H](NC(=O)[C@H](Cc1ccccc1)NC(=O)[C@@H](NC(=O)CNC(=O)[C@H](CCC(N)=O)NC(=O)[C@@H](C)NC(=O)[C@@H](N)Cc1c[nH]cn1)[C@@H](C)O)[C@@H](C)O)C(=O)N[C@@H](C)C(=O)N[C@@H](C)C(=O)N[C@@H](CCCCN)C(=O)N[C@@H](CC(=O)O)C(=O)N[C@@H](Cc1ccccc1)C(=O)N[C@H](C(=O)N[C@@H](CCC(=O)O)C(=O)N[C@@H](Cc1c[nH]c2ccccc12)C(=O)N[C@@H](CC(C)C)C(=O)N[C@@H](CCC(=O)O)C(=O)N[C@@H](CO)C(=O)N[C@@H](C)C(N)=O)[C@@H](C)CC)C(=O)O` [Compound 12] and `CCCCCCCCCCCCCCCC(=O)N[C@@H](CCC(=O)NCCCC[C@H](NC(=O)[C@H](CCC(=O)O)NC(=O)[C@H](CC(=O)O)NC(=O)[C@H](CC(C)C)NC(=O)[C@H](Cc1ccc(O)cc1)NC(=O)[C@H](CCCCN)NC(=O)[C@H](CO)NC(=O)[C@H](Cc1ccc(O)cc1)NC(=O)[C@H](CC(=O)O)NC(=O)[C@H](CO)NC(=O)[C@@H](NC(=O)[C@H](Cc1ccccc1)NC(=O)[C@@H](NC(=O)CNC(=O)[C@H](CCC(N)=O)NC(=O)[C@H](C)NC(=O)[C@@H](N)Cc1c[nH]cn1)[C@@H](C)O)[C@@H](C)O)C(=O)N[C@@H](C)C(=O)N[C@@H](C)C(=O)N[C@@H](CCCCN)C(=O)N[C@@H](CC(=O)O)C(=O)N[C@@H](Cc1ccccc1)C(=O)N[C@H](C(=O)N[C@@H](CCC(=O)O)C(=O)N[C@@H](Cc1c[nH]c2ccccc12)C(=O)N[C@@H](CC(C)C)C(=O)N[C@@H](CCC(=O)O)C(=O)N[C@@H](CO)C(=O)N[C@@H](C)C(N)=O)[C@@H](C)CC)C(=O)O` [Compound 11] are the same in EC50: 0.14 nM for the first, 0.14 nM for the second.
